# Test results from patent US20100204118A1, “USE OF GRF-1 (1-29 ) AND CORTICOTROPIN-RELEASING FACTOR AS THERAPEUTIC AGENTS” (priority 2007, published 2010).
# Ends that are not written are not given here.
# What was measured:
# [1] = test system: HIV-1IIB; assay: HIV-1 antiviral assay in CEM-SS cells (MTS readout); type: cell-based
# [2] = test system: HCMV strain AD169; assay: HCMV plaque reduction assay in MRC-5 cells; type: cell-based; conditions: for inhibition of HCMV plaque formation as compared to the virus control experiment: 10 micrograms per ml, 7-10 days
# [3] = test system: Primary Human endothelial cells (HUVEC); assay: Endothelial cell migration assay; type: cell-based; conditions: 10 micrograms per ml, 22 hours
# [4] = test system: hepatitis B virus (HBV) ayw strain; assay: HBV experimental assay system, HepG2-2.2.15, TaqMan PCR of secreted HBV DNA; type: cell-based; conditions: 10 micrograms per ml; six days; HBV DNA in supernatant
# Text: HepG2-2.2.15 is a stable cell line containing the hepatitis B virus (HBV) ayw strain genome (ATCC Cat. No. CRL-11997). Antiviral compounds blocking any late step of viral replication such as transcription, translation, pregenome encapsidation, reverse transcription, particle assembly and release can be identified and characterized using this cell line. In this assay, an active compound will reduce the production of secreted HBV from cells, measured by utilizing real time quantitative PCR (TaqMan) assay to directly and accurately measure HBV DNA copies.
# HepG2-2.2.15 cells were plated in 96-well microtiter plates. After 16-24 hours the confluent monolayer of HepG2-2.2.15 cells was washed and the medium was replaced with complete medium containing test peptides—10 micrograms per ml—in duplicate. […] Six days following the initial administration of the peptides, the cell culture supernatants was collected, treated with pronase and DNAse and then used in a real-time quantitative TaqMan PCR assay. The PCR-amplified HBV DNA was detected in real-time by monitoring increases in fluorescence signals that result from the exonucleolytic degradation of a quenched fluorescence probe molecule that hybridizes to the mplified HBV DNA. […] Antiviral activity was calculated from the reduction in HBV DNA levels (% virus control). […]
# [5] = test system: murine spleen cells; assay: Th1/Th2 cytokine profiling assay (Ovalbumin-restimulated spleen cells, CBA kit); type: cell-based, mouse; conditions: 10 micrograms per ml; 72 hours after Ovalbumin restimulation
# [6] = test system: HUVEC; assay: Endothelial tube formation assay; type: cell-based, human; conditions: 10 micrograms per ml, 20 hours
# Procedure: The endothelial tube formation assay is based on the ability of endothelial cells to form three-dimensional capillary-like tubular structures when cultured on a gel of basement membrane extract. The endothelial tube formation assay represents a powerful model for studying inhibition and induction of angiogenesis. Pre-labeled HUVEC with Calcein AM were seeded in a 96-well culture plate coated with extracellular metrix (Chemicon international Cat. ECM625) and treated with test peptides-10 micrograms per ml-in full growth medium. […] control was vehicle only. […] Duplicate wells for each treatment were photographed and quantitatevily analyzed for an average tubule length using image analysis software ImageProPlus. Raw data were expressed as average tubule […]±standard deviation. Statistic p values were computed using the Student's t-test.
# [7] = test system: A549 cells; assay: Apoptosis induction assay (Annexin-5); type: cell-based, human; conditions: 10 micrograms per ml, 24 hours
Molecule,antiviral activity of positive control compounds (HIV-1) [1],inhibition of HBV replication as compared to the virus control infection [4],"production of IL-2, induced by [5]","production of IL-5, decreased by [5]","production of TNF-alpha, induced by [5]",inhibition of the tube formation of human endothelial cells [6],inhibition of HCMV plaque formation as compared to the virus control experiment [2],further results
Cc1cn([C@H]2C[C@H](N=[N+]=[N-])[C@@H](CO)O2)c(=O)[nH]c1=O [AZT],expected levels of antiviral activity,–,–,–,–,–,–,–
"Nc1nc(O)c2ncn(COC(CO)CO)c2n1 [Ganciclovir, reference compound]",–,–,–,–,–,–,–,antiviral activity of positive control compound (HCMV) ([2]; positive control): expected levels of antiviral activity
CC(C)(C)NC(=O)[C@@H]1CN(Cc2cccnc2)CCN1C[C@@H](O)C[C@@H](Cc1ccccc1)C(=O)N[C@H]1c2ccccc2C[C@H]1O [indinavir],expected levels of antiviral activity,–,–,–,–,–,–,–
Ser-Glu-Glu-Pro-Pro-Ile-Ser-Leu-Asp-Leu-Thr-Phe-His-Leu-Leu-Arg-Glu-Val-Leu-Glu-Met-Ala-Arg-Ala-Glu-Gln-Leu- Ala-Gln-Gln-Ala-His-Ser-Asn-Arg-Lys-Leu-Met-Glu-Ile-Ile-N H2 (SEEPPISLDLTFHLLREVLEMARAEQLAQQAHSNRKLMEII-NH2) [Peptide 2],–,57.2%,66.5%,93.0,38.1%,did not inhibit,3.2%,"inhibition of the migration of human endothelial cells (in words) [3]: did not inhibit; production of IFN-gamma, induced by [5]: 44.1%; production of IL-4, induced by [5]: 78.1%; induction of apoptosis on human lung cells [7]: 0.9%"
Tyr-Ala-Asp-Ala-Ile-Phe-Thr-Asn-Ser-Tyr-Arg-Lys-Val-Leu-Gly-Gln-Leu-Ser-Ala-Arg-Lys-Leu-Leu-Gln-Asp-Ile-Met-Ser-Arg-NH2 (YADAIFTNSYRKVLGQLSARKLLQDIMSR-NH2) [Peptide 1],–,30.5%,30.9%,33.0,55.5%,did not inhibit,0.7%,"inhibition of the migration of human endothelial cells [3]: 9%; change of the production of IL-4 (in words) [5]: did not significantly change; production of IFN-gamma, decreased by [5]: 29.0; induction of apoptosis on human lung cells (in words) [7]: did not show any significant induction of apoptosis"
